Experimental data: patent US20120289523A1, “PYRROLO [3,2-E] [1,2,4] TRIAZOLO [1,5-A] PYRIMIDINES DERIVATIVES AS INHIBITORS OF MICROGLIA ACTIVATION” (BTG INTERNATIONAL LIMITED, priority 2009, published 2012)

Columns and labels:
[1] = test system: Mouse BALB/c monocyte macrophages, J774.2; test: Inhibition of β-amyloid induced activation: nitric oxide release (Griess assay); assay type: cell-based; conditions: 20 μM Aβ(1-42), 50 U/ml Interferon gamma, 24 hours
Protocol: (§1) Mouse BALB/c monocyte macrophages, J774.2, {ECACC 85011428} were grown and sub-cultured in cell media (DMEM containing 10% FBS, 1% L-glutamine and 1% penicillin/streptomycin). The J774 cells were plated at 100,000 cells/well in 50 μl cell media on 96 well plates and placed in a 37° C., 5% CO2 incubator overnight prior to experiments.
(§2) The addition of Aβ(1-42) and compounds to the J774 cells was performed using a Biotek precision 2000 liquid handling instrument. 3 μl of compound in DMSO ranging from 8 μM to 6 mM were pipetted into a “daughter plate” containing 294 μl of cell media and mixed thoroughly. 3 μl of Aβ(1-42) in DMSO at 4 mM was then added to the “daughter plate” and mixed thoroughly. 50 μl was then removed from the “daughter plate” and added to the plated J774 cells. The final concentrations in the wells containing 100 μl cell media were 20 μM Aβ(1-42), the compounds ranged from ˜40 nM to 30 μM in 1% DMSO and also in the presence of 50 U/ml Interferon gamma. The plates were incubated for 24 hours in a 37° C., 5% CO2 incubator. After 24 hours incubation the media from the wells were collected and stored at −20° C. until required for testing.
The nitric oxide levels in the media were tested using the Griess assay (Promega G2930) using the manufacturer's instructions.

[2] = test system: Mouse BALB/c monocyte macrophages, J774.2; test: Inhibition of β-amyloid induced activation: TNF-alpha levels in media (ELISA or Meso Scale Discovery kit); assay type: cell-based; conditions: J774.2, 24 h, J774.2 cells, 20 μM Aβ(1-42), read-out: IC50 (μM) TNF-α
Protocol: as §1, §2
The TNF-alpha levels in the media were tested using a TNF-alpha ELISA (R&D Systems MTA00) or Meso Scale Discovery MS6000 Mouse Proinflammatory-7 kit, using the manufacturers instructions.

CYP2D6 = target: T1, CYP2D6 (Homo sapiens, UniProt P10635); test: Inhibition of cytochrome P450 (P450-Glo) CYP2D6; assay type: biochemical; conditions: human recombinant enzyme, read-out: CYP450 Inhibition (IC50 microM) 2D6
T1 construct: purchased Promega Corporation
T1 sequence (P10635 whole entry): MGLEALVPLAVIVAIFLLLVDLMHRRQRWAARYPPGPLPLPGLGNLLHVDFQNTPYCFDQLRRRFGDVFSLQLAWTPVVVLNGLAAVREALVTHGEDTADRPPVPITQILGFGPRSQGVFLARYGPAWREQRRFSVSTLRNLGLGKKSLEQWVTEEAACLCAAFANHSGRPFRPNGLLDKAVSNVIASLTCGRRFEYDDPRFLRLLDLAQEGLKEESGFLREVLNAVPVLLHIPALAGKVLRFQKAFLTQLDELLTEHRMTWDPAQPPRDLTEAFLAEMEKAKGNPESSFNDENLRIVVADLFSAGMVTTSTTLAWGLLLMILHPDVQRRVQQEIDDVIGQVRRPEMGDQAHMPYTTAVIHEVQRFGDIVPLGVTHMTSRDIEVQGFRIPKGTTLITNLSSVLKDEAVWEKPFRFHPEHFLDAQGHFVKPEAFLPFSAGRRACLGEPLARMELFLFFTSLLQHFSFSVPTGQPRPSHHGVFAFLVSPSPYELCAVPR
Protocol: (§3) Tests were carried out using human recombinant enzymes CYP1A2, CYP2C9, CYP2C19, CYP2D6 and CYP3A4 and P450-Glo™ screening system (Promega Corporation). Briefly, using a white opaque 96-well plate, one-fourth of the final reaction volume of a 4×cytochrome P450 reaction mixture containing the requisite luminogenic substrate was combined with an equal volume of the test compound (0.03-30 μM) or known inhibitor control at a 4×concentration to give one-half of the final reaction volume. A 10-minute pre-incubation was performed. One-half the final volume of the 2×NADPH regeneration system was then added to initiate the CYP reactions, and bring all components to their 1×target concentrations. The plate is incubated at 37° C. for 30 minutes. The luciferin detection reagent was added which stops the CYP reaction and initiates luminescence. The signal was allowed to stabilize for 20 minutes at room temperature and then the luminescence was read. The net CYP-dependent luminescence was calculated by subtracting the average luminescence of the control reactions from the CYP-containing reactions. Changes from the average net signal of untreated CYP reactions for reactions with a test compound reflect the inhibition of CYP activity by this compound.

CYP2C9 = target: T2, CYP2C9 (Homo sapiens, UniProt P11712); test: Inhibition of cytochrome P450 (P450-Glo) CYP2C9; assay type: biochemical; conditions: human recombinant enzyme, read-out: CYP450 Inhibition (IC50 microM) 2C9
T2 construct: purchased Promega Corporation
T2 sequence (P11712 whole entry): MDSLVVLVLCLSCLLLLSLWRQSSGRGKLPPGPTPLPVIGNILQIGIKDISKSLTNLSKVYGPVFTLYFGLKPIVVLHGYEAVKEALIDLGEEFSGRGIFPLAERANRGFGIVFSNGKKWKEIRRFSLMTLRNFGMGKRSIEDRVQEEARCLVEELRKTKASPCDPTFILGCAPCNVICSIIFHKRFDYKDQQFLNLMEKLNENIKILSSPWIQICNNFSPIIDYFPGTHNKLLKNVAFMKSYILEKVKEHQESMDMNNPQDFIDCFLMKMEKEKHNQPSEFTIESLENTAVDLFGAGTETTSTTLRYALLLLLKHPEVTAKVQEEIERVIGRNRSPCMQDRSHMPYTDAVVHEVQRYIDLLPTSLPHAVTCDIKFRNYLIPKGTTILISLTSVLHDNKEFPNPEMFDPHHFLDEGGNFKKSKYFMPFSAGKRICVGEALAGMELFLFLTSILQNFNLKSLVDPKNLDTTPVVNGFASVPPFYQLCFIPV
Protocol: as §3

[3] = Metabolism of compounds, human liver microsomes; assay type: in vitro ADME; conditions: 1 μM compound, 0.3 mg/ml protein, 60 minutes at 37° C.; for half-life at 1 μM: human, pooled liver microsomes, read-out: Microsomes t1/2 (mins) Human
Protocol: (§4) These were measured by incubating 1 μM test compound with pooled liver microsomes (0.3 mg/ml) protein for 60 minutes at 37° C. Samples were analysed by HPLC-MS/MS (Kuhnz, W. and Gieschen, H. (1998) Drug Metab. Dispos., 26, 1120-1127).

CYP3A4 = target: T3, CYP3A4 (Homo sapiens, UniProt P08684); test: Inhibition of cytochrome P450 (P450-Glo) CYP3A4; assay type: biochemical; conditions: human recombinant enzyme, read-out: CYP450 Inhibition (IC50 microM) 3A4
T3 construct: purchased Promega Corporation
T3 sequence (P08684 whole entry): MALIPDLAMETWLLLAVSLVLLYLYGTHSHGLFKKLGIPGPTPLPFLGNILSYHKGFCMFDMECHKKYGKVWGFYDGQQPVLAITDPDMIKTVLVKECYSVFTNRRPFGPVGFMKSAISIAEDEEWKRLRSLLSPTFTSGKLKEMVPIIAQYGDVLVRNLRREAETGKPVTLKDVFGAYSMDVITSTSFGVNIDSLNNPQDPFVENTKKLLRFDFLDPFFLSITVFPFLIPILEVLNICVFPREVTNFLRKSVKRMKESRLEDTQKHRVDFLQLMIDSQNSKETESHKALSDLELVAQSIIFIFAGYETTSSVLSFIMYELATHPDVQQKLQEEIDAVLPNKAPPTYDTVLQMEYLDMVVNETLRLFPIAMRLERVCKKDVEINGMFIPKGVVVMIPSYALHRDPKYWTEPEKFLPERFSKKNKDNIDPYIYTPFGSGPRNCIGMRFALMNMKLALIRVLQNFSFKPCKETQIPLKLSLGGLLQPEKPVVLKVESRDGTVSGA
Protocol: as §3

[4] = Metabolism of compounds, rat liver microsomes; assay type: in vitro ADME; conditions: 1 μM compound, 0.3 mg/ml protein, 60 minutes at 37° C.; for half-life at 1 μM: rat, pooled liver microsomes, read-out: Microsomes t1/2 (mins) Rat
Protocol: as §4

CYP1A2 = target: T4, CYP1A2 (Homo sapiens, UniProt P05177); test: Inhibition of cytochrome P450 (P450-Glo) CYP1A2; assay type: biochemical; conditions: human recombinant enzyme, read-out: CYP450 Inhibition (IC50 microM) 1A2
T4 construct: purchased Promega Corporation
T4 sequence (P05177 1-516): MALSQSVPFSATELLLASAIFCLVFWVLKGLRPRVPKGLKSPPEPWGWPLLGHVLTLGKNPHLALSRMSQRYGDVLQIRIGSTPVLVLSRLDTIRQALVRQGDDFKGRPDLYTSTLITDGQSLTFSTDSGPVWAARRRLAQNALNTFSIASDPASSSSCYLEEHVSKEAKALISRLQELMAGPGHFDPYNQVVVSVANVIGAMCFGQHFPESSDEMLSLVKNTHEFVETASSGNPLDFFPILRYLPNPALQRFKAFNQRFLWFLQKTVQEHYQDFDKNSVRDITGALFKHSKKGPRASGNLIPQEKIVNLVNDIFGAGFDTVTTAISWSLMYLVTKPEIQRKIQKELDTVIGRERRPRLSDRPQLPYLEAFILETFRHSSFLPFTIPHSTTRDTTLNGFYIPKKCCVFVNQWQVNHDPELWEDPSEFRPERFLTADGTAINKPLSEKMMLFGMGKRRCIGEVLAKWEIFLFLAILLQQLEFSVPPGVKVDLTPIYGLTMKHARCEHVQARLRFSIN
Protocol: as §3, with “Briefly, using a white opaque 96-well plate, one-fourth of the final reaction volume of a 4×cytochrome P450 reaction mixture containing the requisite luminogenic substrate was combined with an equal volume of the test compound (0.03-30 μM) or known inhibitor control at a 4×concentration to give one-half of the final reaction volume.” left out

CYP2C19 = target: T5, CYP2C19 (Homo sapiens, UniProt P33261); test: Inhibition of cytochrome P450 (P450-Glo) CYP2C19; assay type: biochemical; conditions: human recombinant enzyme, read-out: CYP450 Inhibition (IC50 microM) 2C19
T5 construct: purchased Promega Corporation
T5 sequence (P33261 whole entry): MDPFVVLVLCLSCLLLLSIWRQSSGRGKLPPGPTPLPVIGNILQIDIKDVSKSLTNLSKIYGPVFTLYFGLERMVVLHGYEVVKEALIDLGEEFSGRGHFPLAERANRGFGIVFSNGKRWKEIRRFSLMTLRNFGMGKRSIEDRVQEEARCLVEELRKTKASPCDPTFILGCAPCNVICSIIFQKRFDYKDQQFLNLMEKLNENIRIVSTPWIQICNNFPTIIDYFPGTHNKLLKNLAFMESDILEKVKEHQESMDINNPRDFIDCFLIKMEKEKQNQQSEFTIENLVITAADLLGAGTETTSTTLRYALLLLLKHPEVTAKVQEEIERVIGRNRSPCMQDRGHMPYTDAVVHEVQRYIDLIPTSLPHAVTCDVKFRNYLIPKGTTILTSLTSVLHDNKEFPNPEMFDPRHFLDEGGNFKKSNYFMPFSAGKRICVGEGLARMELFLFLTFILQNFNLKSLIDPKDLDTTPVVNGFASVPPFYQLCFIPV
Protocol: as §3

[5] = Cell permeability of compounds (Caco-2 or TC7 monolayers); assay type: in vitro ADME, human; conditions: human, Caco-2, apical-to-basolateral, 60 minutes at 37° C., read-out: Cell Perm A-B
Protocol: (§5) These were measured using the accepted in vitro intestinal epithelial model using either the human colon adeno-carcinoma cell line Caco-2 or a sub-clone of this cell line, TC7. The apparent permeability coefficient (Papp) was determined in the apical-to-basolateral (A-B) and the B-A directions across cell monolayers cultured on 96-well polycarbonate membrane filters. Compounds were tested at 10 μM with a final DMSO concentration of 1%. The assay plate was incubated for 60 minutes at 37° C. with gentle shaking. Samples were taken at time zero from the donor side and at the end of the incubation from both donor and receiver sides. Samples were analysed by HPLC-MS/MS. The Papp value (expressed as 10^−6 cm/sec) was then calculated based on the appearance rate of the compound in the receiver side (Gres, M. C. et al. (1998) Pharm. Res., 15, 726-733).

[6] = test system: human colon adeno-carcinoma cell line Caco-2 or sub-clone TC7; test: as above; assay type: in vitro ADME; conditions: 10 μM; for Cell Perm A-B/B-A: ratio of Papp A-B to B-A, 60 minutes
Protocol: as §5

[7] = Table 1, identification of the active enantiomer, J774.2 cells, read-out: IC50 measured by inhibition of Nitric Oxide release
[8] = Table 2, J774.2 cells, read-out: IC50 (μM) NO
[9] = **Level of TNF for Aβ(1-42) alone: 13184 pg/mL
[10] = *Level of TNF for Aβ(1-42) alone: 9699 pg/mL

SMILES | IC50 [1, 7] | IC50 [1, 8] | IC50 [2, 9] | IC50 (CYP2D6) | IC50 (CYP2C9) | melting point | half-life at 1 μM [3] | IC50 (CYP3A4) | half-life at 1 μM [4] | IC50 [2, 10] | IC50 (CYP1A2) | IC50 (CYP2C19) | Papp A→B at 60 min, 10 μM [5] | Cell Perm A-B/B-A [6] | Microsomes t1/2 (mins) Human [3] | Microsomes t1/2 (mins) Rat [4] | Cell Perm (Papp 10^−6 cm s^−1) A-B ([6]; apical-to-basolateral, 60 minutes at 37° C.)
Cc1nc2ncnn2c2c1CCN2[C@H](c1ccccc1)C(F)(F)F [Compound 1, (R)-5-Methyl-8-[2,2,2-trifluoro-1-phenylethyl]-7,8-dihydro-6H-pyrrolo[3,2e][1,2,4]-triazolo[1,5-a]pyrimidine] | – | 1.1 µM | – | > 20 µM | 14 µM | 153 to 155 °C | > 60 min | 8 µM | 35 min | 1.44 µM | > 20 µM | > 10 µM | 35 ×10⁻⁶ cm/s | 0.55 | – | – | –
Cc1nc2ncnn2c2c1CCN2[C@H](c1ccc(F)cc1)C(F)(F)F [Compound 2, (R)-5-Methyl-8-[2,2,2-trifluoro-1-(4-fluorophenyl)ethyl]-7,8-dihydro-6H-pyrrolo[3,2e][1,2,4]triazolo[1,5-a]pyrimidine] | – | 0.8 µM | 3.2 µM | > 20 µM | > 20 µM | – | > 60 min | 19 µM | 60 min | 0.91 µM | > 20 µM | > 20 µM | 72 ×10⁻⁶ cm/s | 0.37 | – | – | –
Cc1nc2ncnn2c2c1CCN2[C@@H](C)c1ccc(F)cc1 [Compound 7, (S)-8-[1-(4-Fluorophenyl)ethyl]-5-methyl-7,8-dihydro-6H-pyrrolo [3,2e][1,2,4]triazolo[1,5-a]pyrimidine] | – | – | – | 15 µM | 27 µM | – | – | 0.83 µM | – | – | 99 µM | 7 µM | – | 0.85 | >60 min | 15 min | 33 10^−6 cm s^−1

Results, then the compound that gave them:

IC50 [1, 7] | IC50 [1, 8] | IC50 [2, 9] | IC50 (CYP2D6) | IC50 (CYP2C9) | melting point | half-life at 1 μM [3] | IC50 (CYP3A4) | half-life at 1 μM [4] | IC50 [2, 10] | IC50 (CYP1A2) | IC50 (CYP2C19) | Papp A→B at 60 min, 10 μM [5] | Cell Perm A-B/B-A [6] | Microsomes t1/2 (mins) Human [3] | Microsomes t1/2 (mins) Rat [4] | Cell Perm (Papp 10^−6 cm s^−1) A-B ([6]; apical-to-basolateral, 60 minutes at 37° C.) | SMILES
3 µM | 3 µM | 5.5 µM | – | – | – | – | – | – | – | – | – | – | – | – | – | – | Cc1nc2ncnn2c2c1CCN2C(C)c1ccccc1 (single isomer, unassigned) [Compound 4]
1.5 µM | 1.5 µM | 2.3 µM | 21 µM | > 100 µM | – | > 60 min | 0.53 µM | 15 min | – | > 100 µM | 13 µM | 35 ×10⁻⁶ cm/s | 0.85 | – | – | – | Cc1nc2ncnn2c2c1CCN2[C@@H](C)c1ccccc1 [Compound 5, (S)-8-[1-(Phenyl)ethyl]-5-methyl-7,8-dihydro-6H-pyrrolo[3,2e][1,2,4]triazolo[1,5-a]pyrimidine]
30 µM | – | – | – | – | – | – | – | – | – | – | – | – | – | – | – | – | Cc1nc2ncnn2c2c1CCN2[C@H](C)c1ccccc1 [Compound 6, (R)-8-[1-(Phenyl)ethyl]-5-methyl-7,8-dihydro-6H-pyrrolo[3,2e][1,2,4]triazolo[1,5-a]pyrimidine]
